Results reported in paper PMC9965125, “New NSAID Conjugates as Potent and Selective COX-2 Inhibitors: Synthesis, Molecular Modeling and Biological Investigation” (Molecules, 2023).

How the values were obtained:
gastric mucosa = conditions: both, albino, mouse, in vivo, 3 days; for % Incidence of Ulcer Divided by 10 / Average Severity of Ulcer / Average of Ulcer Number / Number of Animals with Ulcer: po, 10 mg/kg
Procedure: The ulcerogenic liability was determined in albino mice obeying the standard method.
Animals of either sex (pregnant females were excluded) weighing 20 –25 g were divided into 8 groups of 6 animals each. The animals fasted 18 h before drug administration.
80 administered orally for three successive days to fasted animals at a dose of 10 mg kg-1 (animal […]
The control group animals were given water only with few drops of Tween 80. The animals were sacrificed by cervical dislocation and the stomach was removed, opened along the greater curvature and rinsed with saline. The gastric mucosa was examined with a magnifying lens (10x) for the presence of lesions and ero sions. The ulcer index was calculated (Table 4) and the degree of ulcerogenic effect was expressed in terms of.
1. The percentage incidence of ulcers divided by 10.
2. Average number of ulcers per stomach.
3. Average severity of ulcers.
The ulcer index is the value that resulted from the sum of the above three values. […]

mice = test: toxicological bioassay; type: in vivo; conditions: five times the anti-inflammatory dose (50 mg/kg indomethacin mol equivalent); recorded 24 h post-administration
Procedure: Five times the anti-inflammatory dose was orally administrated. […]
5a, 5b, 5d, 5e) was determined utilizing the standard method in mice. Albino mice weighing 20–25 g were divided into 6 groups of 6 mice each. Administrations of the tested compounds dissolved in distilled water by the aid of few drops of Tween 80 were given intraperitoneally in 50 […]
inflammatory dosage). The control group was given water only with few drops of Tween 80. The toxic symptoms and mortality rates were recorded 24 h post -administration in each group.

[1] = test system: LPS-stimulated RAW264.7 macrophages; test: NO production of LPS-induced RAW264.7 (Griess method); type: cell-based; conditions: 40 μg/mL; LPS 10 ng/mL; LPS only 22 μM, baseline 12.8 μM
IL-6 mRNA = conditions: 40 μg/mL; in comparison to LPS-stimulated cells only
Procedure: (§1) For this purpose, the mRNA levels of IL-6, TNF-α, and iNOS were measured using real-time qPCR (RT-qPCR).
(§2) Treatment of LPS-stimulated RAW264.7 macrophages was done with 40 µg/mL of the isolated
(§3) Evaluation of inflammatory mRNA expression levels
(§4) Inflammatory mRNA expression levels were evaluated using RT-qPCR (Applied Biosystems, CA, USA). Total RNA was extracted by lysing RAW264.7 cells using Qiazol Lysis Reagent. The extracted RNA was used to synthesize cDNA using RevertAid First Strand cDNA synthesis kit according to manufacturer’s protocol. The cDNA was then added with forward and reverse
(§5) primers, nuclease free water and maxima SYBR green mix (Thermo Fisher Scientific, MA, USA).
(§6) The inflammation-related genes of mRNA expression levels are as follows: IL-6, TNF-α, and
(§7) iNOS. All expression was normalized to GAPDH (endogenous control) and relative fold mRNA
(§8) expression levels were calculated using the comparative 2 −ΔΔCT method. The PCR reaction consists
(§9) of initiation stage at 95 °C for 10 min, after that 40 PCR cycles of d enaturation stage for 15 s at 95
(§10) °C and annealing and extension for 1 min at 60 °C.

iNOS mRNA = conditions: 40 μg/mL; in comparison to LPS-stimulated cells only
Procedure: as §1, §2, §3, §4, §5, §6, §7, §8, §9, §10

TNF-α mRNA = conditions: 40 μg/mL; in comparison to LPS-stimulated cells only
Procedure: as §1, §2, §3, §4, §5, §6, §7, §8, §9, §10

Structure (SMILES) | Ulcer Index (gastric mucosa) | % Incidence of Ulcer Divided by 10 (gastric mucosa) | Average Severity of Ulcer (gastric mucosa) | Average of Ulcer Number (gastric mucosa) | Number of Animals with Ulcer (gastric mucosa) | toxic symptoms or mortality (mice) | LPS-stimulated NO production (nitrite) [1] | reduction in IL-6 mRNA levels (IL-6 mRNA) | reduction in iNOS mRNA levels (iNOS mRNA) | reduction in TNF-α mRNA levels (TNF-α mRNA)
Cc1ccc(-n2cc(COC(=O)C(C)c3ccc(CC(C)C)cc3)nn2)cc1 (centres unmarked) [Compound 5d, (1-(p-Tolyl)-1H-1,2,3-triazol-4-yl)methyl 2-(4-isobutylphenyl)propanoate] | 0 | 0 | 0 | 0 | 0 | No toxic symptoms or mortality | 1.45 ± 1.3 µM | 66.2% | 59% | 72%
COc1ccccc1-n1cc(COC(=O)C(C)c2ccc(CC(C)C)cc2)nn1 (centres unmarked) [Compound 5e, (1-(2-Methoxyphenyl)-1H-1,2,3-triazol-4-yl)methyl 2-(4-isobutylphenyl)propanoate] | 0 | 0 | 0 | 0 | 0 | No toxic symptoms or mortality | insignificant decrease | 82% | 42% | 86%
C#CCOC(=O)C(C)c1ccc(CC(C)C)cc1 (centres unmarked) [Compound 3, Prop-2-yn-1-yl 2-(4-isobutylphenyl) Propanoate] | 4.33 | 3.33 | 0.67 | 0.33 | 2/6 | No toxic symptoms or mortality | – | – | – | –
